Molecules are shown by their SMILES.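 Five concentrations, 48 hours, 96-well plates. Abbreviation: GI50, concentration required for 50% inhibition of growth.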 The source made the active and inactive calls. No stated cut-off is given here; in the data, active = GI50 up to about 1.1 µM and inactive = higher. Some results are limits rather than exact numbers.

Some test systems named below: DU-145; K562; OVCAR-4; HCT-15; PC-3; HOP-92; OVCAR-8; SF-268; SK-MEL-5; NCI-H226; HCT-116; UACC-257; BT-549; NCI/ADR-RES; SNB-19; SK-MEL-28; SF-539; 786-0; SK-OV-3; MDA-N.
Holding throughout (assay): growth of human tumour cells (NCI), 48 h

In the case of `CC(C)(C)OC(=O)NC(CSCc1ccc(C(=O)c2ccccc2)cc1)C(=O)N1CCN(CCCCN2c3ccccc3Sc3cc(N=[N+]=[N-])ccc32)CC1` (stereo not given), the GI50 in the assay with DU-145 is > 100 µM (inactive); in the assay on K562 it was > 100 µM (inactive); in the assay on OVCAR-4 it was > 100 µM (inactive); in the assay with HCT-15, over 100 µM; in the assay on PC-3, > 100 µM (inactive); with HOP-92, > 100 µM (inactive). The GI50 in the assay with OVCAR-8, in the assay with SF-268, with SK-MEL-5, with NCI-H226, in the assay on HCT-116 and in the assay with UACC-257 was > 100 µM (inactive) throughout. The GI50 in the assay with BT-549, with NCI/ADR-RES, in the assay with SNB-19, with SK-MEL-28, with SF-539 and in the assay on 786-0 was > 100 µM (inactive) in each case. Also, the GI50 with SK-OV-3 and in the assay on MDA-N was > 100 µM (inactive) each time.
For the molecule `CN(C)S(=O)(=O)Nc1ccccn1`, the GI50 with DU-145 was > 100 µM (inactive); in the assay with K562, > 100 µM (inactive); in the assay with OVCAR-4 it was > 100 µM (inactive); in the assay on HCT-15, over 100 µM; with PC-3 it was > 100 µM (inactive); in the assay with HOP-92 it was > 100 µM (inactive). In addition, the GI50 in the assay with OVCAR-8, with SF-268, with SK-MEL-5, in the assay on NCI-H226, in the assay on HCT-116 and in the assay with UACC-257 was > 100 µM (inactive) in each case. Besides, the GI50 in the assay with BT-549, in the assay on NCI/ADR-RES, with SNB-19, in the assay on SK-MEL-28, in the assay with SF-539 and with 786-0 was > 100 µM (inactive) each time. Also, the GI50 with SK-OV-3 and in the assay on MDA-N was > 100 µM (inactive) throughout.

These data come from ChEMBL document CHEMBL1201862, “PubChem BioAssay data set” (2004).
